Test results published in PubChem BioAssay AID2060504 (Molecular Pharmacology Branch, DTP, NCI, 2025).
Where “and” joins values, the source holds several entries; their conditions need not be identical. Equal entries are not always repeated.

Test system: 636577-100-R-J1-PDC complex spheroid viability
Test: Anticancer human tumor 636577-100-R-J1-PDC patient-derived endometrial adenocarcinoma cell line growth inhibition [GQUAD]
Conditions: for viability, T/C: stronger effect = lower value
Text: DNA G-quadruplex Stabilizer Agents in Combinations in Complex Spheroids
A high-throughput screen of multi-cell type tumor spheroids was designed to identify active combinations of DNA G-quadruplex stabilizer agents and targeted small molecules. Complex spheroids include a stromal component modeled by human endothelial cells (HUVEC) and fibroblasts modeled by human mesenchymal stem cells (MSCs). The concentration ranges selected for each drug and investigational agent were based upon clinically achievable concentrations if the clinical Cmax of the agent was known.
Compounds. The drugs and investigational agents: pidnarulex (CX-5461; NSC782164), APTO-253 (NSC789042), BRACO-19 (NSC847499), peposertib (NSC802822), ceralasertib (NSC780249), elimusertib (NSC800525), camonsertib (NSC841442), AZD-1390 (NSC803789), olaparib (NSC753686), talazoparib (NSC767125), ART-558 (NSC835418), sotorasib (NSC818433), MRTX-1133 (NSC836407), SN-38 (NSC673596), topotecan (NSC609699), etoposide (NSC141540), doxorubicin (NSC123127), gemcitabine (NSC613327), 5-fluorouracil (NSC19893), paclitaxel (NSC125973), vemurafenib (NSC761431), panobinostat (NSC761190), R-306465 (JNJ-16241199; NSC773264), adavosertib (NSC754352), TP-3654 (NSC805149), carboplatin (NSC241240), KSQ-4279 (NSC840948), and staurosporine (NSC755774) were obtained from the National Cancer Institute (NCI) Developmental Therapeutics Program Chemical Repository (34). The FDA-approved anticancer drug set is available from the NCI Developmental Therapeutics Program. […] The stock solutions were prepared in dimethyl sulfoxide (DMSO, Sigma-Aldrich, St. Louis, MO, cat. D2650) at 800-fold the tested concentration and stored at -70 degrees C prior to their use. All drugs and investigational agents were tested over a range starting from a high concentration at or near the clinical Cmax and decreasing in half-log increments. If the clinical Cmax for an agent had not been determined, the highest concentration tested was 10 microM.
2.3 Cell Culture. All cells were maintained in an incubator at 37 degrees C and 5% CO2 with 95% humidity. The PDC lines were cultured according to standard operating procedures established by the NCI PDMR. All PDCs were thawed and cultured in Matrigel-coated flasks prepared with a working solution of 1X Ham's F-12 nutrient mix, without supplementation (Invitrogen, cat. 11765054), 100 U/mL penicillin-streptomycin (Invitrogen, cat. 15140122), and 2.5% Matrigel (Corning Inc., cat. 354248) for the first three passages. The 857933-349-R-J2-PDC line was cultured in 6C/Colon 1B media, which includes advanced DMEM/F-12 (Thermo Fisher Scientific, cat. 12634028), 10 mM HEPES (Thermo Fisher Scientific, cat. 15630080), 1X GlutaMAX supplement (Thermo Fisher Scientific, cat. 35050061), 0.1 mg/mL primocin (InvivoGen, cat. ant-pm-2), 10% defined fetal bovine serum, heat inactivated (HyClone Laboratories Inc., cat. SH30070.03HI), 50% L-WRN conditioned media (ATCC, cat. CRL-3276), 1.25 mM N-Acetyl-L-cysteine (Sigma-Aldrich, cat. A9165), 10 mM nicotinamide (Sigma-Aldrich, cat. N0636), 1X B-27 supplement (Thermo Fisher Scientific, cat. 17504044), 1X N-2 supplement (Thermo Fisher Scientific, cat. 17502048), 10 microM Y-27632 dihydrochloride (Tocris Bioscience, cat. 1254), and 50 ng/mL human EGF recombinant protein (Thermo Fisher Scientific, cat. PHG0311). The 485176-168-R4-J1-PDC line was cultured in Panc media, which includes all 6C/Colon 1B media components plus 100 ng/mL human FGF-10 (Thermo Fisher Scientific, cat. 100-26), 500 nM SB-431542 (Selleckchem, cat. S1067), and gastrin (Tocris, cat. 3006).
[…]

[1] = curve of first compound, second compound 0.0316 µM
[2] = curve of first compound, second compound 0.1 µM
[3] = curve of first compound, second compound 0.316 µM
[4] = curve of first compound, second compound 1 µM
[5] = curve of first compound, second compound 3.16 µM
[6] = curve of first compound, second compound 10 µM
[7] = second compound 0.0316 µM, first compound 0.0316 µM
[8] = second compound 0.0316 µM, first compound 0.1 µM
[9] = second compound 0.0316 µM, first compound 0.316 µM
[10] = second compound 0.0316 µM, first compound 1 µM
[11] = second compound 0.0316 µM, first compound 3.16 µM
[12] = second compound 0.0316 µM, first compound 10 µM
[13] = second compound 0.1 µM, first compound 0.0316 µM
[14] = second compound 0.1 µM, first compound 0.1 µM
[15] = second compound 0.1 µM, first compound 0.316 µM
[16] = second compound 0.1 µM, first compound 1 µM
[17] = second compound 0.1 µM, first compound 3.16 µM
[18] = second compound 0.1 µM, first compound 10 µM
[19] = second compound 0.316 µM, first compound 0.0316 µM
[20] = second compound 0.316 µM, first compound 0.1 µM
[21] = second compound 0.316 µM, first compound 0.316 µM
[22] = second compound 0.316 µM, first compound 1 µM
[23] = second compound 0.316 µM, first compound 3.16 µM
[24] = second compound 0.316 µM, first compound 10 µM
[25] = second compound 1 µM, first compound 0.0316 µM
[26] = second compound 1 µM, first compound 0.1 µM
[27] = second compound 1 µM, first compound 0.316 µM
[28] = second compound 1 µM, first compound 1 µM
[29] = second compound 1 µM, first compound 3.16 µM
[30] = second compound 1 µM, first compound 10 µM
[31] = second compound 3.16 µM, first compound 0.0316 µM
[32] = second compound 3.16 µM, first compound 0.1 µM
[33] = second compound 3.16 µM, first compound 0.316 µM
[34] = second compound 3.16 µM, first compound 1 µM
[35] = second compound 3.16 µM, first compound 3.16 µM
[36] = second compound 3.16 µM, first compound 10 µM
[37] = second compound 10 µM, first compound 0.0316 µM
[38] = second compound 10 µM, first compound 0.1 µM
[39] = second compound 10 µM, first compound 0.316 µM
[40] = second compound 10 µM, first compound 1 µM
[41] = second compound 10 µM, first compound 3.16 µM
[42] = second compound 10 µM, first compound 10 µM
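Also: viability read after seven days of drug exposure.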
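For viability, T/C in this document: luminescence signal used as a proxy for viable cells; 100% = DMSO vehicle control wells.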

O=C(NO)c1cnc(N2CCN(S(=O)(=O)c3ccc4ccccc4c3)CC2)nc1 + CN(C)c1ccc(Nc2c3ccc(NC(=O)CCN4CCCC4)cc3nc3cc(NC(=O)CCN4CCCC4)ccc23)cc1
IC50 [1]: < 31.6 nM | IC50 [2]: < 31.6 nM | IC50 [3]: < 31.6 nM | IC50 [4]: < 31.6 nM | IC50 [5]: < 31.6 nM | IC50 [6]: < 31.6 nM | viability, T/C [7]: 30.3% | viability, T/C [8]: 14.9% | viability, T/C [9]: 6.37% | viability, T/C [10]: 6.45% | viability, T/C [11]: 0.17% | viability, T/C [12]: 0.08% | viability, T/C [13]: 34.5% | viability, T/C [14]: 15.9% | viability, T/C [15]: 6.15% | viability, T/C [16]: 6.73% | viability, T/C [17]: 0.15% | viability, T/C [18]: 0.08% | viability, T/C [19]: 30.4% | viability, T/C [20]: 18.8% | viability, T/C [21]: 6.26% | viability, T/C [22]: 5.85% | viability, T/C [23]: 0.15% | viability, T/C [24]: 0.1% | viability, T/C [25]: 26.3% | viability, T/C [26]: 15.7% | viability, T/C [27]: 7.08% | viability, T/C [28]: 7.15% | viability, T/C [29]: 0.24% | viability, T/C [30]: 0.08% | viability, T/C [31]: 25.1% | viability, T/C [32]: 15.6% | viability, T/C [33]: 8.28% | viability, T/C [34]: 6.85% | viability, T/C [35]: 0.21% | viability, T/C [36]: 0.08% | viability, T/C [37]: 7.11% | viability, T/C [38]: 4.48% | viability, T/C [39]: 5.08% | viability, T/C [40]: 6.28% | viability, T/C [41]: 0.12% | viability, T/C [42]: 0.08%

Cc1[nH]c2ccccc2c1CCNCc1ccc(/C=C/C(=O)NO)cc1
viability, T/C (compound 0.000999 µM): 80% and 86.3% and 79% | viability, T/C (compound 0.00316 µM): 57.6% and 53.8% and 75.6% | viability, T/C (compound 0.00999 µM): 34.1% and 38.9% and 51.3% | viability, T/C (compound 0.0316 µM): 15.3% and 17.2% and 16.4% | viability, T/C (compound 0.0999 µM): 6.66% and 8% and 7.02% | viability, T/C (compound 0.316 µM): 9.32% and 8.7% and 9.38% | IC50 (curve of compound): 4.63 nM and 4.41 nM and 10.4 nM

Nc1ccn(C2OC(CO)C(O)C2(F)F)c(=O)n1 (stereo not drawn) + CN(C)c1ccc(Nc2c3ccc(NC(=O)CCN4CCCC4)cc3nc3cc(NC(=O)CCN4CCCC4)ccc23)cc1
IC50 [1]: < 31.6 nM | IC50 [2]: < 31.6 nM | IC50 [3]: < 31.6 nM | IC50 [4]: < 31.6 nM | IC50 [5]: < 31.6 nM | IC50 [6]: < 31.6 nM | viability, T/C [7]: 17.7% | viability, T/C [8]: 13.4% | viability, T/C [9]: 14.6% | viability, T/C [10]: 17.2% | viability, T/C [11]: 16.4% | viability, T/C [12]: 15.8% | viability, T/C [13]: 17.7% | viability, T/C [14]: 14.2% | viability, T/C [15]: 14.9% | viability, T/C [16]: 14.3% | viability, T/C [17]: 14.5% | viability, T/C [18]: 18.5% | viability, T/C [19]: 16.9% | viability, T/C [20]: 11.2% | viability, T/C [21]: 14.2% | viability, T/C [22]: 17.4% | viability, T/C [23]: 16.4% | viability, T/C [24]: 15.6% | viability, T/C [25]: 15.9% | viability, T/C [26]: 16.7% | viability, T/C [27]: 15.2% | viability, T/C [28]: 17.8% | viability, T/C [29]: 16.5% | viability, T/C [30]: 17.1% | viability, T/C [31]: 16.6% | viability, T/C [32]: 13.9% | viability, T/C [33]: 15.2% | viability, T/C [34]: 14.8% | viability, T/C [35]: 16.3% | viability, T/C [36]: 14.5% | viability, T/C [37]: 3.38% | viability, T/C [38]: 3.05% | viability, T/C [39]: 4% | viability, T/C [40]: 3.42% | viability, T/C [41]: 3.65% | viability, T/C [42]: 3.14%

Cn1ncnc1[C@H]1c2n[nH]c(=O)c3cc(F)cc(c23)N[C@@H]1c1ccc(F)cc1
viability, T/C (compound 0.000999 µM): 116% and 71.8% and 77.3% | viability, T/C (compound 0.00316 µM): 99% and 81.1% and 72.7% | viability, T/C (compound 0.00999 µM): 94.9% and 91.4% and 85.6% | viability, T/C (compound 0.0316 µM): 69.3% and 56% and 68.8% | viability, T/C (compound 0.0999 µM): 44.9% and 52.2% and 43.4% | viability, T/C (compound 0.316 µM): 29.7% and 35.6% and 29.1% | IC50 (curve of compound): 83.4 nM and 55.7 nM and 74.1 nM
